According to PMC9578392, “Safety, Tolerability, and Pharmacokinetics of the Novel Antiviral Agent Ensitrelvir Fumaric Acid, a SARS-CoV-2 3CL Protease Inhibitor, in Healthy Adults” (Antimicrobial Agents and Chemotherapy, 2022):

Assay: Blood lipid profiling, single-dose part (Supplementary Table 3)
Assay type: in vivo, human

## Cn1cnc(Cn2c(=O)[nH]/c(=N\c3cc4cn(C)nc4cc3Cl)n(Cc3cc(F)c(F)cc3F)c2=O)n1 [Ensitrelvir, ensitrelvir fumaric acid]
Cohort A 20 mg single dose, Day 2, baseline mean 0.8825
  Triglyceride, Mean (SD): 1.0032 mmol/L
Cohort A 20 mg single dose, Day 2, baseline mean 4.1635
  Cholesterol, Mean (SD): 4.2842 mmol/L
Cohort A 20 mg single dose, Day 2, baseline mean 460.0
  HDL-C, Mean (SD): 458.3 (47.9) mg/L
Cohort A 20 mg single dose, Day 2, baseline mean 993.3
  LDL-C, Mean (SD): 1048.3 mg/L
Cohort A 20 mg single dose, Day 4, baseline mean 0.8825
  Triglyceride, Mean (SD): 1.3643 mmol/L
Cohort A 20 mg single dose, Day 4, baseline mean 4.1635
  Cholesterol, Mean (SD): 4.2668 mmol/L
Cohort A 20 mg single dose, Day 4, baseline mean 460.0
  HDL-C, Mean (SD): 446.7 (63.1) mg/L
Cohort A 20 mg single dose, Day 4, baseline mean 993.3
  LDL-C, Mean (SD): 1026.7 mg/L
Cohort A 20 mg single dose, Day 7/Early termination, baseline mean 0.8825
  Triglyceride, Mean (SD): 1.3852 mmol/L
Cohort A 20 mg single dose, Day 7/Early termination, baseline mean 4.1635
  Cholesterol, Mean (SD): 4.1290 mmol/L
Cohort A 20 mg single dose, Day 7/Early termination, baseline mean 460.0
  HDL-C, Mean (SD): 440.0 (66.9) mg/L
Cohort A 20 mg single dose, Day 7/Early termination, baseline mean 993.3
  LDL-C, Mean (SD): 966.7 mg/L
Cohort A 20 mg single dose, Follow up, baseline mean 0.8825
  Triglyceride, Mean (SD): 0.7037 mmol/L
Cohort A 20 mg single dose, Follow up, baseline mean 4.1635
  Cholesterol, Mean (SD): 3.9048 mmol/L
Cohort A 20 mg single dose, Follow up, baseline mean 460.0
  HDL-C, Mean (SD): 445.0 (70.1) mg/L
Cohort A 20 mg single dose, Follow up, baseline mean 993.3
  LDL-C, Mean (SD): 923.3 mg/L
Cohort B 70 mg single dose, Day 2, baseline mean 1.0330
  Triglyceride, Mean (SD): 1.1478 mmol/L
Cohort B 70 mg single dose, Day 2, baseline mean 4.0987
  Cholesterol, Mean (SD): 4.1463 mmol/L
Cohort B 70 mg single dose, Day 2, baseline mean 436.7
  HDL-C, Mean (SD): 413.3 (42.7) mg/L
Cohort B 70 mg single dose, Day 2, baseline mean 995.0
  LDL-C, Mean (SD): 1041.7 mg/L
Cohort B 70 mg single dose, Day 4, baseline mean 1.0330
  Triglyceride, Mean (SD): 1.4170 mmol/L
Cohort B 70 mg single dose, Day 4, baseline mean 4.0987
  Cholesterol, Mean (SD): 4.0515 mmol/L
Cohort B 70 mg single dose, Day 4, baseline mean 436.7
  HDL-C, Mean (SD): 411.7 (52.3) mg/L
Cohort B 70 mg single dose, Day 4, baseline mean 995.0
  LDL-C, Mean (SD): 946.7 mg/L
Cohort B 70 mg single dose, Day 7/Early termination, baseline mean 1.0330
  Triglyceride, Mean (SD): 1.4393 mmol/L
Cohort B 70 mg single dose, Day 7/Early termination, baseline mean 4.0987
  Cholesterol, Mean (SD): 3.8145 mmol/L
Cohort B 70 mg single dose, Day 7/Early termination, baseline mean 436.7
  HDL-C, Mean (SD): 396.7 (60.2) mg/L
Cohort B 70 mg single dose, Day 7/Early termination, baseline mean 995.0
  LDL-C, Mean (SD): 881.7 mg/L
Cohort B 70 mg single dose, Follow up, baseline mean 1.0330
  Triglyceride, Mean (SD): 0.8882 mmol/L
Cohort B 70 mg single dose, Follow up, baseline mean 4.0987
  Cholesterol, Mean (SD): 3.7368 mmol/L
Cohort B 70 mg single dose, Follow up, baseline mean 436.7
  HDL-C, Mean (SD): 420.0 (55.1) mg/L
Cohort B 70 mg single dose, Follow up, baseline mean 995.0
  LDL-C, Mean (SD): 873.3 mg/L
Cohort C fasted state 250 mg single dose, Day 2 [Day 16], baseline mean 0.9596
  Triglyceride, Mean (SD): 1.3053 mmol/L
Cohort C fasted state 250 mg single dose, Day 2 [Day 16], baseline mean 4.1053
  Cholesterol, Mean (SD): 3.8918 mmol/L
Cohort C fasted state 250 mg single dose, Day 2 [Day 16], baseline mean 486.3
  HDL-C, Mean (SD): 376.3 (81.9) mg/L
Cohort C fasted state 250 mg single dose, Day 2 [Day 16], baseline mean 900.0
  LDL-C, Mean (SD): 916.3 mg/L
Cohort C fasted state 250 mg single dose, Day 4 [Day 18], baseline mean 0.9596
  Triglyceride, Mean (SD): 1.2235 mmol/L
Cohort C fasted state 250 mg single dose, Day 4 [Day 18], baseline mean 4.1053
  Cholesterol, Mean (SD): 3.9695 mmol/L
Cohort C fasted state 250 mg single dose, Day 4 [Day 18], baseline mean 486.3
  HDL-C, Mean (SD): 401.3 (66.4) mg/L
Cohort C fasted state 250 mg single dose, Day 4 [Day 18], baseline mean 900.0
  LDL-C, Mean (SD): 942.5 mg/L
Cohort C fasted state 250 mg single dose, Day 7 [Day 21]/Early termination, baseline mean 0.9596
  Triglyceride, Mean (SD): 1.0571 mmol/L
Cohort C fasted state 250 mg single dose, Day 7 [Day 21]/Early termination, baseline mean 4.1053
  Cholesterol, Mean (SD): 4.0019 mmol/L
Cohort C fasted state 250 mg single dose, Day 7 [Day 21]/Early termination, baseline mean 486.3
  HDL-C, Mean (SD): 438.8 (76.6) mg/L
Cohort C fasted state 250 mg single dose, Day 7 [Day 21]/Early termination, baseline mean 900.0
  LDL-C, Mean (SD): 923.8 mg/L
Cohort C fasted state 250 mg single dose, Follow up (n 4), baseline mean 0.9596
  Triglyceride, Mean (SD): 0.6295 mmol/L
Cohort C fasted state 250 mg single dose, Follow up (n 4), baseline mean 4.1053
  Cholesterol, Mean (SD): 3.9760 mmol/L
Cohort C fasted state 250 mg single dose, Follow up (n 4), baseline mean 486.3
  HDL-C, Mean (SD): 445.0 mg/L
Cohort C fasted state 250 mg single dose, Follow up (n 4), baseline mean 900.0
  LDL-C, Mean (SD): 977.5 mg/L
Cohort D 500 mg single dose, Day 2, baseline mean 0.7507
  Triglyceride, Mean (SD): 1.2928 mmol/L
Cohort D 500 mg single dose, Day 2, baseline mean 4.2838
  Cholesterol, Mean (SD): 3.9005 mmol/L
Cohort D 500 mg single dose, Day 2, baseline mean 546.7
  HDL-C, Mean (SD): 330.0 mg/L
Cohort D 500 mg single dose, Day 2, baseline mean 990.0
  LDL-C, Mean (SD): 951.7 mg/L
Cohort D 500 mg single dose, Day 4, baseline mean 0.7507
  Triglyceride, Mean (SD): 1.1327 mmol/L
Cohort D 500 mg single dose, Day 4, baseline mean 4.2838
  Cholesterol, Mean (SD): 3.8273 mmol/L
Cohort D 500 mg single dose, Day 4, baseline mean 546.7
  HDL-C, Mean (SD): 340.0 (74.8) mg/L
Cohort D 500 mg single dose, Day 4, baseline mean 990.0
  LDL-C, Mean (SD): 950.0 mg/L
Cohort D 500 mg single dose, Day 7/Early termination, baseline mean 0.7507
  Triglyceride, Mean (SD): 0.9937 mmol/L
Cohort D 500 mg single dose, Day 7/Early termination, baseline mean 4.2838
  Cholesterol, Mean (SD): 3.8103 mmol/L
Cohort D 500 mg single dose, Day 7/Early termination, baseline mean 546.7
  HDL-C, Mean (SD): 421.7 (83.8) mg/L
Cohort D 500 mg single dose, Day 7/Early termination, baseline mean 990.0
  LDL-C, Mean (SD): 928.3 mg/L
Cohort D 500 mg single dose, Follow up, baseline mean 0.7507
  Triglyceride, Mean (SD): 0.5627 mmol/L
Cohort D 500 mg single dose, Follow up, baseline mean 4.2838
  Cholesterol, Mean (SD): 3.6505 mmol/L
Cohort D 500 mg single dose, Follow up, baseline mean 546.7
  HDL-C, Mean (SD): 450.0 (85.1) mg/L
Cohort D 500 mg single dose, Follow up, baseline mean 990.0
  LDL-C, Mean (SD): 843.3 mg/L
Cohort E 1000 mg single dose, Day 2, baseline mean 1.0275
  Triglyceride, Mean (SD): 2.3427 mmol/L
Cohort E 1000 mg single dose, Day 2, baseline mean 4.1332
  Cholesterol, Mean (SD): 3.5257 mmol/L
Cohort E 1000 mg single dose, Day 2, baseline mean 413.3
  HDL-C, Mean (SD): 166.7 (45.5) mg/L
Cohort E 1000 mg single dose, Day 2, baseline mean 986.7
  LDL-C, Mean (SD): 840.0 mg/L
Cohort E 1000 mg single dose, Day 4, baseline mean 1.0275
  Triglyceride, Mean (SD): 1.9683 mmol/L
Cohort E 1000 mg single dose, Day 4, baseline mean 4.1332
  Cholesterol, Mean (SD): 3.2498 mmol/L
Cohort E 1000 mg single dose, Day 4, baseline mean 413.3
  HDL-C, Mean (SD): 180.0 (52.5) mg/L
Cohort E 1000 mg single dose, Day 4, baseline mean 986.7
  LDL-C, Mean (SD): 800.0 mg/L
Cohort E 1000 mg single dose, Day 7/Early termination, baseline mean 1.0275
  Triglyceride, Mean (SD): 1.2210 mmol/L
Cohort E 1000 mg single dose, Day 7/Early termination, baseline mean 4.1332
  Cholesterol, Mean (SD): 3.7628 mmol/L
Cohort E 1000 mg single dose, Day 7/Early termination, baseline mean 413.3
  HDL-C, Mean (SD): 303.3 (61.5) mg/L
Cohort E 1000 mg single dose, Day 7/Early termination, baseline mean 986.7
  LDL-C, Mean (SD): 1003.3 mg/L
Cohort E 1000 mg single dose, Follow up, baseline mean 1.0275
  Triglyceride, Mean (SD): 0.7565 mmol/L
Cohort E 1000 mg single dose, Follow up, baseline mean 4.1332
  Cholesterol, Mean (SD): 3.7410 mmol/L
Cohort E 1000 mg single dose, Follow up, baseline mean 413.3
  HDL-C, Mean (SD): 343.3 (47.2) mg/L
Cohort E 1000 mg single dose, Follow up, baseline mean 986.7
  LDL-C, Mean (SD): 988.3 mg/L
Cohort J 2000 mg single dose, Day 2, baseline mean 0.9975
  Triglyceride, Mean (SD): 2.0737 mmol/L
Cohort J 2000 mg single dose, Day 2, baseline mean 4.4608
  Cholesterol, Mean (SD): 3.9952 mmol/L
Cohort J 2000 mg single dose, Day 2, baseline mean 543.3
  HDL-C, Mean (SD): 225.0 (76.6) mg/L
Cohort J 2000 mg single dose, Day 2, baseline mean 1051.7
  LDL-C, Mean (SD): 901.7 mg/L
Cohort J 2000 mg single dose, Day 4, baseline mean 0.9975
  Triglyceride, Mean (SD): 1.7668 mmol/L
Cohort J 2000 mg single dose, Day 4, baseline mean 4.4608
  Cholesterol, Mean (SD): 3.4133 mmol/L
Cohort J 2000 mg single dose, Day 4, baseline mean 543.3
  HDL-C, Mean (SD): 171.7 (55.6) mg/L
Cohort J 2000 mg single dose, Day 4, baseline mean 1051.7
  LDL-C, Mean (SD): 865.0 mg/L
Cohort J 2000 mg single dose, Day 7/Early termination, baseline mean 0.9975
  Triglyceride, Mean (SD): 0.7867 mmol/L
Cohort J 2000 mg single dose, Day 7/Early termination, baseline mean 4.4608
  Cholesterol, Mean (SD): 3.9437 mmol/L
Cohort J 2000 mg single dose, Day 7/Early termination, baseline mean 543.3
  HDL-C, Mean (SD): 253.3 mg/L
Cohort J 2000 mg single dose, Day 7/Early termination, baseline mean 1051.7
  LDL-C, Mean (SD): 1135.0 mg/L
Cohort J 2000 mg single dose, Follow up, baseline mean 0.9975
  Triglyceride, Mean (SD): 0.4255 mmol/L
Cohort J 2000 mg single dose, Follow up, baseline mean 4.4608
  Cholesterol, Mean (SD): 3.7112 mmol/L
Cohort J 2000 mg single dose, Follow up, baseline mean 543.3
  HDL-C, Mean (SD): 405.0 (45.9) mg/L
Cohort J 2000 mg single dose, Follow up, baseline mean 1051.7
  LDL-C, Mean (SD): 951.7 mg/L
